Experimental findings from ChEMBL document CHEMBL1122188, “A quantitative structure-activity relationship study of the inhibitory action of a series of enkephalin-like peptides in the guinea pig ileum and mouse vas deferens bioassays” (J Med Chem, 1982) are described below.

Non-standard residues stand in square brackets, D forms with d. Residues, ends and D or L forms follow the SMILES beside them. Cha = N[C@@H](CC1CCCCC1)C(=O)O

What all share (details): read-out: Log 1/IC50 (converted)
The species named for one assay is Mus musculus. The assay is described as follows: (§1) Inhibitory activity contractions of electrically stimulated mouse vas deferens was determined. The assay is classed as functional, organism-based.
Another assay is filed under the species Cavia porcellus. As to the kind of experiment: Inhibitory activity for contractions of electrically stimulated guinea pig ileum was determined. The assay is classed as functional, organism-based.
Assay [1] addresses Delta-type opioid receptor (Mus musculus, UniProt P32300). The description is as §1. Format: functional, tissue-based.

Chain of Delta-type opioid receptor (P32300 whole entry): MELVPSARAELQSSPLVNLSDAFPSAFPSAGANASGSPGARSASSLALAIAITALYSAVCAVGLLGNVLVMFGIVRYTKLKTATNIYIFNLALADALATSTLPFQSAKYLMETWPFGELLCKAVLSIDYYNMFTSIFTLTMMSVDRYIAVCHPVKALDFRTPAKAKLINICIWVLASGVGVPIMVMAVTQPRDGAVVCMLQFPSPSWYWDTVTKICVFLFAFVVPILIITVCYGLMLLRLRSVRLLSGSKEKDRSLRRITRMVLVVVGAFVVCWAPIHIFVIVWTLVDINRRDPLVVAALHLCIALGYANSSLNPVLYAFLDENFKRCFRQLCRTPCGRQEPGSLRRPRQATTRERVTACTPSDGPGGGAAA

On to `CC(C)C[C@H](NC(=O)[C@H](Cc1ccccc1)NC(=O)CNC(=O)[C@H](C)NC(=O)[C@@H](N)Cc1ccc(O)cc1)C(N)=O`, for which the figures for the IC50 in the assay filed under Mus musculus and in the assay listed under Cavia porcellus were 9.55 nM and 11.2 nM, respectively.

With `CSCC[C@H](NC(=O)[C@H](Cc1ccccc1)NC(=O)CNC(=O)[C@H](C)NC(=O)[C@@H](N)Cc1ccc(O)cc1)C(N)=O`, in the assay filed under Cavia porcellus, the IC50 was 11.5 nM.

Consider `C[C@H](NC(=O)[C@@H](N)Cc1ccc(O)cc1)C(=O)NCC(=O)N[C@@H](Cc1ccc([N+](=O)[O-])cc1)C(=O)N[C@@H](CCC(C)(C)C)C(N)=O`, for which the IC50 in the assay listed under Cavia porcellus is 1.91 nM.

`COc1ccc(C[C@H](N)C(=O)N[C@@H](C)C(=O)NCC(=O)N[C@@H](Cc2ccc([N+](=O)[O-])cc2)C(=O)N[C@@H](CCSC)C(N)=O)cc1`: the figures for the IC50 (in assay [1]; in the assay filed under Cavia porcellus) were 3.16 nM and 2.29 nM, respectively.

Turning to `C[C@H](NC(=O)[C@@H](N)Cc1ccc(O)cc1)C(=O)NCC(=O)N[C@@H](Cc1ccc([N+](=O)[O-])cc1)C(=O)N[C@@H](CC12CC3CC(CC(C3)C1)C2)C(N)=O`, the IC50 in assay [1] was 20.4 nM; in the assay filed under Cavia porcellus, 3.8 nM.

Take `CC(C)C[C@H](NC(=O)[C@H](Cc1ccc([N+](=O)[O-])cc1)NC(=O)CNC(=O)[C@H](C)NC(=O)[C@@H](N)Cc1ccc(O)cc1)C(N)=O`: the IC50 in the assay filed under Cavia porcellus is 3.16 nM.

Regarding `COc1ccc(C[C@H](N)C(=O)N[C@@H](C)C(=O)NCC(=O)N[C@@H](CC2CCCCC2)C(=O)N[C@@H](CCSC)C(N)=O)cc1` (H-Y(Me)AG[Cha]M-NH2), the IC50 in the assay filed under Cavia porcellus is 72.4 nM.

Turning to `C[C@H](NC(=O)[C@@H](N)Cc1ccc(O)cc1)C(=O)NCC(=O)N[C@@H](Cc1ccccc1)C(=O)N[C@H](C(N)=O)C(C)(C)C` (HELM PEPTIDE1{Y.A.G.F.[CC(C)(C)[C@H](N[*:1])C(=O)[*:2]].[am]}$$$$V2.0), the IC50 is 9.77 nM in assay [1] and 11.7 nM in the assay filed under Cavia porcellus.

Regarding `C[C@H](NC(=O)[C@@H](N)Cc1ccc(O)cc1)C(=O)NCC(=O)N[C@@H](Cc1ccccc1)C(=O)N[C@@H](CC12CC3CC(CC(C3)C1)C2)C(N)=O` (HELM PEPTIDE1{Y.A.G.F.[O=C([C@H](CC12CC3CC(CC(C3)C1)C2)N[*:1])[*:2]].[am]}$$$$V2.0), the results for the IC50 (in assay [1]; in the assay listed under Cavia porcellus) were 50.1 nM and 6.03 nM, respectively.

On to `CC(C)C[C@H](NC(=O)[C@H](CC1CCCCC1)NC(=O)CNC(=O)[C@H](C)NC(=O)[C@@H](N)Cc1ccc(O)cc1)C(N)=O` (HELM PEPTIDE1{Y.A.G.[Cha].L.[am]}$$$$V2.0), for which the IC50 in the assay listed under Cavia porcellus is 91.2 nM.

Take `CC(C)C[C@H](NC(=O)[C@H](CC12CC3CC(CC(C3)C1)C2)NC(=O)CNC(=O)[C@H](C)NC(=O)[C@@H](N)Cc1ccc(O)cc1)C(N)=O` (HELM PEPTIDE1{Y.A.G.[O=C([C@H](CC12CC3CC(CC(C3)C1)C2)N[*:1])[*:2]].L.[am]}$$$$V2.0): the figures for the IC50 (in assay [1]; in the assay listed under Cavia porcellus) were 2950 nM and 1000 nM, respectively.
